Assay results as given in the CheMixHub viscosity set.

Assay: xn = mol fraction of the nth substance listed

Clc1ccccc1 + Cc1ccccc1
Conditions | viscosity [mPa·s]
303.15 K, 101 kPa, x2 = 0.8959 | 0.5561
303.15 K, 101 kPa, x2 = 0.8995 | 0.5584
303.25 K, 101.33 kPa, x1 = 0.7 | 0.7203
303.35 K, 101.33 kPa, x1 = 0.3 | 0.6272
303.55 K, 101.33 kPa, x1 = 0.1 | 0.5816
303.75 K, 101.33 kPa, x1 = 0.4 | 0.6426
304.15 K, 101.33 kPa, x1 = 0.2 | 0.6008
308.15 K, 101 kPa, x2 = 0.101 | 0.6704
308.15 K, 101 kPa, x2 = 0.2035 | 0.6518
308.15 K, 101 kPa, x2 = 0.3026 | 0.6334
308.15 K, 101 kPa, x2 = 0.4005 | 0.6181
308.15 K, 101 kPa, x2 = 0.5004 | 0.5983
308.15 K, 101 kPa, x2 = 0.6014 | 0.5769
308.15 K, 101 kPa, x2 = 0.7008 | 0.5641
308.15 K, 101 kPa, x2 = 0.8048 | 0.5447
308.15 K, 101 kPa, x2 = 0.8995 | 0.5279
313.05 K, 101.33 kPa, x1 = 0.3 | 0.5636
313.15 K, 101 kPa, x1 = 0.0994 | 0.4872
313.15 K, 101 kPa, x1 = 0.2021 | 0.503
313.15 K, 101 kPa, x1 = 0.2979 | 0.5205
313.15 K, 101 kPa, x1 = 0.3973 | 0.536
313.15 K, 101 kPa, x1 = 0.5013 | 0.5551
313.15 K, 101 kPa, x1 = 0.6023 | 0.5721
313.15 K, 101 kPa, x1 = 0.7024 | 0.5874
313.15 K, 101 kPa, x1 = 0.8007 | 0.6056
313.15 K, 101 kPa, x1 = 0.9047 | 0.6216
313.15 K, 101 kPa, x2 = 0.0961 | 0.6302
313.15 K, 101 kPa, x2 = 0.101 | 0.6317
313.15 K, 101 kPa, x2 = 0.193 | 0.6128
313.15 K, 101 kPa, x2 = 0.2 | 0.597
313.15 K, 101 kPa, x2 = 0.2035 | 0.6152
313.15 K, 101 kPa, x2 = 0.2907 | 0.5947
313.15 K, 101 kPa, x2 = 0.3026 | 0.5974
313.15 K, 101 kPa, x2 = 0.3894 | 0.5789
313.15 K, 101 kPa, x2 = 0.4 | 0.564
313.15 K, 101 kPa, x2 = 0.4005 | 0.5833
313.15 K, 101 kPa, x2 = 0.4889 | 0.5763
313.15 K, 101 kPa, x2 = 0.5004 | 0.5662
313.15 K, 101 kPa, x2 = 0.5893 | 0.5475
313.15 K, 101 kPa, x2 = 0.6 | 0.53
313.15 K, 101 kPa, x2 = 0.6014 | 0.545
313.15 K, 101 kPa, x2 = 0.6906 | 0.5414
313.15 K, 101 kPa, x2 = 0.7008 | 0.5312
313.15 K, 101 kPa, x2 = 0.7928 | 0.5159
313.15 K, 101 kPa, x2 = 0.8 | 0.498
313.15 K, 101 kPa, x2 = 0.8048 | 0.5134
313.15 K, 101 kPa, x2 = 0.8959 | 0.5005
313.15 K, 101 kPa, x2 = 0.8995 | 0.4983
313.25 K, 101.33 kPa, x1 = 0.1 | 0.5257
313.25 K, 101.33 kPa, x1 = 0.4 | 0.5837
313.35 K, 101.33 kPa, x1 = 0.2 | 0.5458
313.65 K, 101.33 kPa, x1 = 0.7 | 0.6385
322.55 K, 101.33 kPa, x1 = 0.3 | 0.5132
322.75 K, 101.33 kPa, x1 = 0.1 | 0.478
322.85 K, 101.33 kPa, x1 = 0.2 | 0.4964
323.15 K, 101 kPa, x2 = 0.0961 | 0.5575
323.15 K, 101 kPa, x2 = 0.193 | 0.5432
323.15 K, 101 kPa, x2 = 0.2907 | 0.531
323.15 K, 101 kPa, x2 = 0.3894 | 0.5111
323.15 K, 101 kPa, x2 = 0.4889 | 0.5008
323.15 K, 101 kPa, x2 = 0.5893 | 0.4829
323.15 K, 101 kPa, x2 = 0.6906 | 0.4715
323.15 K, 101 kPa, x2 = 0.7928 | 0.4539
323.15 K, 101 kPa, x2 = 0.8959 | 0.4396
323.15 K, 101.33 kPa, x1 = 0.4 | 0.5282
